Measured values reported in patent US12522596B2, “Compounds as GLP-1R agonists” (Terns Pharmaceuticals, Inc., priority 2021, dated 2026).
Read-outs that look alike come from different tables or passages of the source.

Test: Pharmacokinetics in hGLP-1R mice after oral dosing
Assay type: in vivo, male C57BL/6J hGLP-1R mouse
Conditions: male, C57BL/6J hGLP-1R, mouse, plasma, po; for concentration at 120 min: hGLP-1R mouse plasma collected at 120 min (IPGTT cohort); for MRT inf: read-out: MRT0-inf; for MRT last: read-out: MRT0-last; for AUC0-inf: read-out: AUC0-inf
Description: IPGTT (120 min)—PK bleeding: 40 μL blood samples (all treatment groups) were collected from mice under the jaw at IPGTT-120 min after blood glucose measurement into pre-chilled EDTA-2K tubes. Blood samples were processed for plasma by centrifugation at 4° C., 3200×g for 10 min. 15 μL plasma was stored at −80° C. for PK analysis. From 4 mice in Group 7 of the PD cohort, whole brain was collected after blood is harvested at 120 min post dose, rinsed with saline and patted dry and placed into a pre-weighed tube and stored at −80° C. collected for PK analysis.
PK bleeding group design is described in Table 9.
PK bleeding: 30 μL blood was collected at 0.25, 0.5, 1, 2, 4, and 8 h. Blood samples were processed for plasma by centrifugation at 4° C., 3200×g for 10 min. 12 μL plasma was collected at −80° C. for further analysis. From 3 mice in Group 7 of the PK cohort, whole brain was collected after blood is harvested at 8 hr post dose, rinsed with saline and patted dry and placed into a pre-weighed tube and stored at −80° C. collected for PK analysis.
For plasma: An aliquot of 3 μL sample was protein precipitated with 60 μL internal standard (100 ng/mL Labetalol & 100 ng/ml Dexamethasone & 100 ng/ml Tolbutamide & 100 ng/mL Verapamil & 100 ng/ml Glyburide & 100 ng/ml Celecoxib in ACN) and then the mixture was vortex-mixed for 10 min at 800 rpm and centrifuged for 15 min at 3220×g, 4° C.
The linear/log trapezoidal rule was applied in obtaining the PK parameters. Individual plasma concentration values that were below the lower limit of quantitation (LOQ) were excluded from the PK parameter calculation. The nominal dose levels and nominal sampling times were used in the calculation of all pharmacokinetic parameters.

[1] = 0.3 mg/kg, hGLP-1R mouse plasma, PO 0.3 mg/kg, read-out: Mean Concentration
[2] = 0.3 mg/kg, hGLP-1R mouse plasma, PO 0.3 mg/kg, individual animals, read-out: Concentration
[3] = 0.3 mg/kg, hGLP-1R mouse plasma, PO 0.3 mg/kg, individual mice
[4] = 0.3 mg/kg, hGLP-1R mouse plasma, PO 0.3 mg/kg, mean
[5] = 1 mg/kg, hGLP-1R mouse plasma, PO 1 mg/kg, individual animals, read-out: Concentration
[6] = 1 mg/kg, hGLP-1R mouse plasma, PO 1 mg/kg, read-out: Mean Concentration
[7] = 1 mg/kg, hGLP-1R mouse plasma, PO 1 mg/kg, individual mice
[8] = 1 mg/kg, hGLP-1R mouse plasma, PO 1 mg/kg, mean

Question: For N#Cc1ccc(COc2cccc(C3CCN(Cc4nc5ccc(C(=O)O)cc5n4C[C@@H]4CCO4)CC3)n2)c(F)c1 [Reference Compound A, reference compound], which concentration at 120 min (0.3 mg/kg, PO 0.3 mg/kg, read-out: Mean Concentration) is on record?
Answer: 7.16 ng/mL

Question: What about the concentration at 0.25 h [1] of the same molecule?
Answer: 24.9 ng/mL

Question: And the concentration at 0.5 h [2]?
Answer: 19.6 ng/mL

Question: What about the concentration at 0.5 h [1] of the same molecule?
Answer: 17.3 ng/mL

Question: And the concentration at 1 h [1]?
Answer: 16 ng/mL

Question: What about the concentration at 2 h (0.3 mg/kg, hGLP-1R mouse plasma, PO 0.3 mg/kg) of the same molecule?
Answer: 3.37 ng/mL

Question: And the concentration at 4 h [2]?
Answer: < 1 ng/mL

Question: What about the MRT inf [3] of the same molecule?
Answer: 56.6 min

Question: And the MRT last [3]?
Answer: 48.2 min

Question: And the half-life (0.3 mg/kg, hGLP-1R mouse plasma, PO 0.3 mg/kg, individual mice, read-out: T1/2 (converted))?
Answer: 28.9 min

Question: What about the Tmax (0.3 mg/kg, hGLP-1R mouse plasma, PO 0.3 mg/kg, individual mice, read-out: Tmax) of the same molecule?
Answer: 30 min

Question: And the AUC0-inf [4]?
Answer: 27.6 ng·h/mL

Question: And the AUC(0-t) (0.3 mg/kg, hGLP-1R mouse plasma, PO 0.3 mg/kg, mean, read-out: AUC0-last)?
Answer: 24.5 ng·h/mL

Question: And the Cmax (0.3 mg/kg, hGLP-1R mouse plasma, PO 0.3 mg/kg, mean, read-out: Cmax)?
Answer: 27 ng/mL

Question: What about the MRT inf [4] of the same molecule?
Answer: 62.4 min

Question: What about the MRT last [4] of the same molecule?
Answer: 49.2 min

Question: What about the half-life (0.3 mg/kg, hGLP-1R mouse plasma, PO 0.3 mg/kg, mean, read-out: T1/2 (converted)) of the same molecule?
Answer: 36.2 min

Question: What about the Tmax (0.3 mg/kg, hGLP-1R mouse plasma, PO 0.3 mg/kg, mean, read-out: Tmax) of the same molecule?
Answer: 25 min

Question: And the AUC(0-t) (1 mg/kg, hGLP-1R mice, total, PO 1.0 mg/kg, read-out: AUClast Mean)?
Answer: 85.5 ng·h/mL

Question: What about the Cmax (1 mg/kg, hGLP-1R mice, total, PO 1.0 mg/kg, read-out: Cmax Mean) of the same molecule?
Answer: 49.7 ng/mL

Question: What about the Tmax (1 mg/kg, hGLP-1R mice, total, PO 1.0 mg/kg, read-out: Tmax Median) of the same molecule?
Answer: 30 min

Question: And the concentration at 120 min (1 mg/kg, PO 1 mg/kg, read-out: Mean Concentration)?
Answer: 21.4 ng/mL

Question: And the concentration at 0.25 h [5]?
Answer: 43.5 ng/mL

Question: What about the concentration at 0.25 h [6] of the same molecule?
Answer: 35.7 ng/mL

Question: And the concentration at 0.5 h [5]?
Answer: 62.8 ng/mL

Question: And the concentration at 0.5 h [6]?
Answer: 48.1 ng/mL

Question: What about the concentration at 1 h [6] of the same molecule?
Answer: 39.5 ng/mL

Question: What about the concentration at 2 h (1 mg/kg, hGLP-1R mouse plasma, PO 1 mg/kg) of the same molecule?
Answer: 14.5 ng/mL

Question: What about the concentration at 4 h [5] of the same molecule?
Answer: 3.59 ng/mL

Question: And the concentration at 4 h [6]?
Answer: 3.4 ng/mL

Question: And the concentration at 8 h (1 mg/kg, hGLP-1R mouse plasma, PO 1 mg/kg, 8 h, read-out: Mean Concentration)?
Answer: 2.42 ng/mL

Question: And the AUC0-inf [7]?
Answer: 105 ng·h/mL

Question: What about the AUC(0-t) (1 mg/kg, hGLP-1R mouse plasma, PO 1 mg/kg, individual mice, read-out: AUC0-last) of the same molecule?
Answer: 101 ng·h/mL

Question: What about the Cmax (1 mg/kg, hGLP-1R mouse plasma, PO 1 mg/kg, individual mice, read-out: Cmax) of the same molecule?
Answer: 62.8 ng/mL

Question: What about the MRT last [7] of the same molecule?
Answer: 78 min

Question: What about the Tmax (1 mg/kg, hGLP-1R mouse plasma, PO 1 mg/kg, individual mice, read-out: Tmax) of the same molecule?
Answer: 30 min

Question: And the AUC0-inf [8]?
Answer: 93.8 ng·h/mL

Question: And the AUC(0-t) (1 mg/kg, hGLP-1R mouse plasma, PO 1 mg/kg, mean, read-out: AUC0-last)?
Answer: 85.5 ng·h/mL

Question: What about the Cmax (1 mg/kg, hGLP-1R mouse plasma, PO 1 mg/kg, mean, read-out: Cmax) of the same molecule?
Answer: 49.7 ng/mL

Question: And the MRT inf [8]?
Answer: 161 min

Question: And the MRT last [8]?
Answer: 109 min

Question: What about the half-life (1 mg/kg, hGLP-1R mouse plasma, PO 1 mg/kg, mean, read-out: T1/2 (converted)) of the same molecule?
Answer: 119 min

Question: What about the Tmax (1 mg/kg, hGLP-1R mouse plasma, PO 1 mg/kg, mean, read-out: Tmax) of the same molecule?
Answer: 40 min

Question: What about the Tmax (3 mg/kg, hGLP-1R mice, oral, across the doses tested (0.3, 1 and, for Compound 2, 3 mg/kg), read-out: median Tmax) of the same molecule?
Answer: 30 min

Question: What about the half-life (hGLP-1R male mice, oral, across doses, read-out: terminal T1/2) of the same molecule?
Answer: < 120 min
